Like-named read-outs stand apart in the source and are kept apart here. *1 amine or outer side, *2 acyl side, *3 side chain or, on linkers, in order; H or OH if unused. Where a SMILES comes first, the peptide text is derived from it. Side-chain parts run from the residue outwards. [ ]: non-standard residue; d: D form. The star is where a group is joined. γGlu = O=C(O)[C@H](CCC(=O)[*:2])N[*:1]; Stearoyl = CCCCCCCCCCCCCCCCCC(=O)*; Nle = CCCC[C@H](N)C(=O)O; AEEA = NCCOCCOCC(=O)O; Aib = CC(C)(N)C(=O)O
Assays:
[1] = Pharmacokinetics in Goettingen minipigs; format: in vivo, minipig; conditions: for CL / t1/2 / AUCext / F / AUC / C0 / Vd / Cmax / Tmax: female Göttingen minipig; for CL / t1/2 / AUC / C0 / Vd / Cmax / Tmax: LC-MS; for CL / t1/2 / AUC / C0 / Vd / Cmax: non-compartmental analysis; for AUC / C0 / Vd / Cmax / Tmax: 1 mg/kg; for Vd: read-out: Vss
Description: Goettingen minipigs (Ellegaard Göttingen Minipigs A/S, Soroe Landevej 302, DK-4261 Dalmose, Denmark) were dosed with the study peptide at a dose of 1 mg/kg IV and SC routes (0.1 mg/mL). Blood samples were collected from individual animals at the following time points: 0.083, 0.25, 0.5, 2, 4, 6, 8, 24, 48, 72, 96 and 168 h (IV route) and 0.25, 0.5, 2, 4, 6, 8, 24, 48, 72, 96 and 168 h (SC route). All samples, collected into K3-EDTA tubes, were centrifuged and plasma was harvested and stored at − 80 °C until analysis. Three hundred μL of 1% tri-fluoro acetic acid in acetonitrile containing 10 ng/mL irbesartan as internal standard were added to 30 μL of standard, QC and PK study samples to precipitate the plasma proteins. Each sample was vortexed and centrifuged, for 5 min, at 4000 rpm and at 4 °C. Two hundred and fifty microliters of supernatant were collected and evaporated under nitrogen at 37 °C in LoBIND 96 well plates. 150 µL of water/acetonitrile (90/10, v/v) were added to dissolve the evaporates and 10 µL of the extracted plasma samples were injected onto the column. Chromatographic separation was performed on a Thermo Vanquish (Thermo Scientific) chromatography system using a UPLC HSS T3, (50 mm × 2.1 mm I.D., 1.8 μm, Waters Corporation) with a flow rate of 0.600 mL/min at 40 °C and a two-solvent linear gradient system. Solvents A (water) and B (acetonitrile) contained both 0.1% formic acid. […] The Vanquish was coupled to an Orbitrap QExactive™ mass spectrometer (Thermo Scientific) in positive mode. Quantitation was performed in full scan. The optimized source parameters were as follows: ion spray voltage 3.8 kV, sheath gas flow 70 a.u., aux gas flow 10 a.u., aux T 300 °C, capillary T 250 °C, S-lens RF level 60%. Full MS parameters were as follows: mass range 150–2000, AGC target 1 × 10^6, max injection time 250 ms, resolution 70,000 (FWHM @ 200 m/z). Data processing was performed using Xcalibur 3.0 (Thermo Scientific). Ion current of the [M + 5H]5 + of the SA10SC-RLX was extracted with 5 ppm window for quantitation (814.47219 m/z). A calibration curve with 9 standard points was prepared freshly on the day of analysis by spiking appropriate amounts of an intermediate working standard solution into blank rat plasma and ranged from 10 to 4000 ng/mL (2.46–983 nM). Three QC samples, each at four concentration levels from […] to 3200 ng/mL (7.86–786 nM), were used for all analyses. Calibration curves were prepared by plotting the analyte to internal standard peak area ratio versus concentration. Calibration standards were fit by linear regression with 1/x^2 weighting. QC samples (n = 3) were used at six concentration levels. Accepted calibration curve contained minimum 7 concentration levels within ± 20% of nominal (± 25% at the Lower Limit of Quantitation). Accepted QCs were within ± 20% of nominal. PK parameters were calculated using a non-compartmental analysis with Phoenix WinNonLin version 6.4 software.

[2] = target: T1, hRXFP1 (F76V) (Homo sapiens, UniProt Q9HBX9, F76V); experiment: cAMP production in HEK cells expressing hRXFP1 (F76V); format: cell-based; conditions: hRXFP1 F76V mutant, n = 4 experiments in duplicate
T1 sequence (Q9HBX9 1-757 F76V): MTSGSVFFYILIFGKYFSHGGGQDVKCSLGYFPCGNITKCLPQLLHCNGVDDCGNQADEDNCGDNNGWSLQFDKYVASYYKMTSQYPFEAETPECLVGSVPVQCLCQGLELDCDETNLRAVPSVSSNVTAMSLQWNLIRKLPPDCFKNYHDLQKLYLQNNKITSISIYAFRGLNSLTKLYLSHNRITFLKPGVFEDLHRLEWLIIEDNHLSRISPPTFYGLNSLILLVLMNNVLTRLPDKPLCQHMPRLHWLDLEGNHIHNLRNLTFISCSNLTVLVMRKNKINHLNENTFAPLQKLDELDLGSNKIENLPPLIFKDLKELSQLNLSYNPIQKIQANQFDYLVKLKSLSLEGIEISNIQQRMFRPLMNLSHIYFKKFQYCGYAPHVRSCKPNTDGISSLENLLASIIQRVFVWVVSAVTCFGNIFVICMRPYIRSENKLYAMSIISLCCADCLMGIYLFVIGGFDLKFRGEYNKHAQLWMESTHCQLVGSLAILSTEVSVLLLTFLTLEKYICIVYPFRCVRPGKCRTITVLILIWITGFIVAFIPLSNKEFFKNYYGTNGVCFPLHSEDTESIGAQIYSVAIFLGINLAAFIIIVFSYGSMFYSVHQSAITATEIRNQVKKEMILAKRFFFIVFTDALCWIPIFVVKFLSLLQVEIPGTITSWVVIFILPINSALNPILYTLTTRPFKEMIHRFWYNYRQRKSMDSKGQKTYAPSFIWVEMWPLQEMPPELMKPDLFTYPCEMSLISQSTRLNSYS
Description: HEK cells were stably transduced with lentiviral constructs (Vectalys, MOI 20, batches rV2.1A1.5057 B, rV2.1A1.5056 B and rV2.1A1.5059 B) containing a bicistronic vectors encoding hRXFP1 (S69P) or hRXFP1 (F76V) or hRXFP1 (S69P/F76V) under the EF1 promoter followed by an internal ribosome entry site (IRES) elements to express the neomycin antibiotic resistance gene for selection with 500 μg/mL Geneticin (Invitrogen, #10131-019). Three days post transduction, HEK cells were grown in the presence of Genetecin. Positive individual clones were selected and amplified, and cAMP readout (nM) was used as described for other cell types at a cell density of 8000 cells/well.

[3] = female, Göttingen, minipig, plasma, iv, IV 1 mg/kg, animal 1
[4] = female, Göttingen, minipig, plasma, iv, IV 1 mg/kg, animal 2
[5] = female, Göttingen, minipig, plasma, sc, SC 1 mg/kg, animal 3
[6] = female, Göttingen, minipig, plasma, sc, SC 1 mg/kg, animal 4

CCCCCCCCCCCCCCCCCC(=O)N[C@@H](CCC(=O)N[C@@H](CCC(=O)N[C@@H](CCC(=O)NCCOCCOCC(=O)NCCOCCOCC(=O)NCCOCCOCC(=O)NCCCC[C@H](NC(=O)[C@H](CCCCNC(C)=O)NC(=O)[C@H](CCCCN)NC(=O)[C@H](CCCNC(=N)N)NC(=O)C(C)(C)NC(=O)[C@H](CO)NC(=O)[C@H](Cc1c[nH]c2ccccc12)NC(=O)[C@@H](NC(=O)[C@H](CO)NC(=O)[C@H](CCCC)NC(=O)CNC(=O)[C@H](CCC(=O)O)NC(=O)C(C)(C)NC(=O)C(C)(C)NC(=O)[C@@H](NC(=O)[C@H](CCCCNC(C)=O)NC(=O)[C@H](C)NC(=O)[C@H](CCCNC(=N)N)NC(=O)[C@@H](NC(=O)[C@H](CCCCN)NC(=O)[C@H](CCC(=O)O)NC(=O)[C@H](CCCNC(=N)N)NC(=O)CNC(=O)[C@H](CCC(=O)O)NC(=O)[C@H](CC(C)C)NC(C)=O)C(C)C)[C@@H](C)CC)[C@@H](C)O)C(N)=O)C(=O)O)C(=O)O)C(=O)O [SA10SC-RLX] (Ac-LEGREKVRAK(Ac)I[Aib][Aib]EG[Nle]STWS[Aib]RKK(Ac)K([AEEA-AEEA-AEEA-γGlu-γGlu-γGlu-Stearoyl])-NH2)
CL ([1]; IV 1 mg/kg, plasma, animal 1): 0.130 mL/min/kg | t1/2 ([1]; IV 1 mg/kg, plasma, animal 1): 7.06 h | CL ([1]; IV 1 mg/kg, plasma, animal 2): 0.151 mL/min/kg | t1/2 ([1]; IV 1 mg/kg, plasma, animal 2): 6.92 h | AUCext ([1]; IV 1 mg/kg, plasma, animal 1): 0.462% | AUCext ([1]; IV 1 mg/kg, plasma, animal 2): 0.479% | F ([1]; SC 1 mg/kg vs IV 1 mg/kg, animal 3): 81% | F ([1]; SC 1 mg/kg vs IV 1 mg/kg, animal 4): 56% | AUCext ([1]; SC 1 mg/kg, plasma, animal 3): 3.16% | AUCext ([1]; SC 1 mg/kg, plasma, animal 4): 1.83% | AUC [1, 3]: 31.9 µM·h | C0 [1, 3]: 9360 nM | AUC [1, 4]: 27.1 µM·h | C0 [1, 4]: 8570 nM | Vd ([1]; female, Göttingen, minipig, plasma, iv, IV 1 mg/kg, plasma, animal 1): 0.0439 L/kg | Vd ([1]; female, Göttingen, minipig, plasma, iv, IV 1 mg/kg, plasma, animal 2): 0.0497 L/kg | AUC [1, 5]: 23.8 µM·h | Cmax [1, 5]: 1420 nM | AUC [1, 6]: 16.6 µM·h | Cmax [1, 6]: 1450 nM | Tmax [1, 5]: 6 h | Tmax [1, 6]: 4 h | clearance ([1]; female, Göttingen, minipig, plasma, minipigs, IV 1 mg/kg, n = 2): 0.14 mL/min/kg | bioavailability ([1]; female, Göttingen, minipig, plasma, minipigs, SC 1 mg/kg vs IV 1 mg/kg, read-out: bioavailability (ratio of scAUC/ivAUC)): ~70% | level at time molar at 12 h ([1]; female, Göttingen, minipig, plasma, minipigs, SC 1 mg/kg, read-out: plasma concentration after 12 h): ~1000 nM | apparent terminal half-life ([1]; minipigs, IV 1 mg/kg, n = 2): 7 h

relaxin
cAMP response (efficacy) [2]: reduced in all RXFP1 mutants compared to the wild type construct
